Our source for the Conductivity, Solubility and Degradability values is patent US7468150B2, “Synthesis of conducto-magnetic polymers as nano-transducers in biosensor design” (Board of Trustees of Michigan State University, priority 2005, dated 2008).

Type in all cases: physicochemical
The nature of data set [1]: Conductivities of polymers and nanocomposites in solution (Acorn TDS 5 Meter). The conditions noted are these: solvent as given in the compound name. How it is done:
In order to characterize […] and related compounds, several methods were utilized. First, the DC SQUID (Superconducting Quantum Interference Device) magnetometer was used to measure magnetization of solid […] after 3 weeks and the […] base (control). Absorbance checks using spectrophotometer were performed on […] in solution. Conductivities in solution of […] were gauged by Acorn® TDS 5 Meter. […] To create β-carotene nanocomposites, the use of an appropriate solvent was crucial. […] Solutions of β-carotene nanocomposites were characterized by absorbance checks and conductivity measurements. […] Mixtures of β-carotene […] various other PANi-derived polymers are attained forming a variety of other composites.

Data set [2] can be described thus: Solubility of β-carotene in kwik-dri. The conditions noted are these: crudely determined. How it is done: (§1) β-carotene nanocomposites: To create β-carotene nanocomposites, the use of an appropriate solvent was crucial. Acetone, toluene, kwik-dri, and tetrahydrofuran (THF) were tested. The solubility of β-carotene in kwik-dri, a non-aromatic industrial solvent similar to toluene, was crudely determined. Solutions of β-carotene nanocomposites were characterized by absorbance checks and conductivity measurements. […] Mixtures of β-carotene with PANi emeraldine salt and various other PANi-derived polymers are attained forming a variety of other composites.

Data set [3] in a line: Degradability of β-carotene in toluene by absorbance over time. Conditions: absorbance graphs over several days. The protocol: as §1

SMILES strings stand for the structures. In brackets after ≈: the same amount, converted by molar mass.

Turning to `CC1=C(/C=C/C(C)=C/C=C/C(C)=C/C=C/C=C(C)/C=C/C=C(C)/C=C/C2=C(C)CCCC2(C)C)C(C)(C)CCC1` [β-carotene], the Conductivity in data set [1] is recorded as around 0 μS; in data set [1] (listed as Kwik-dri + β-carotene) it was 0.15 μS; in data set [1] (listed as THF + β-carotene) it was around 0 μS. In data set [2], this molecule gave a Solubility of 500 µg/mL (≈ 931 µM). Further, the Degradability entry in data set [3] is recorded as “degradability in toluene was demonstrated”.

A word on the Solubility: it is the dissolved amount per volume that the medium holds.
